This is an account of results in ChEMBL document CHEMBL4000234, “Synthesis and antiviral evaluation of novel heteroarylpyrimidines analogs as HBV capsid effectors” (Bioorg Med Chem Lett, 2017).

The test system of data set [1] is Hepatitis B virus. Briefly: Antiviral activity against HBV infected in human HepAD38 cells assessed as inhibition of DNA replication after 5 days by RT-PCR method. Type of data set: functional, cell-based. As to conditions: HePAD38, 120 h.
The subject of data set [2] is HepG2. Briefly: (§1) Cytotoxicity against human HepG2 cells assessed as growth inhibition by CellTiter 96 non-radioactive cell proliferation colorimetric assay. The format is cell-based. As to conditions: hepg2.
Data set [3] relates to PBMC. Briefly: (§2) Cytotoxicity against human PBMC assessed as growth inhibition by CellTiter 96 non-radioactive cell proliferation colorimetric assay. Type of data set: cell-based.
The test system of data set [4] is CCRF-CEM. Briefly: (§3) Cytotoxicity against human CEM cells assessed as growth inhibition by CellTiter 96 non-radioactive cell proliferation colorimetric assay. As to conditions: ccrf-cem. Type of data set: cell-based.
For data set [5], the system named is Vero. Briefly: (§4) Cytotoxicity against African green monkey Vero cells assessed as growth inhibition by CellTiter 96 non-radioactive cell proliferation colorimetric assay. Type of data set: cell-based. As to conditions: chlorocebus sabaeus, vero.
Data set [6] is described as follows: as §1. Type of data set: cell-based. The settings on record: HepG2 cells.
Data set [7] in a line: as §2. Type of data set: cell-based.
A short description of data set [8]: as §3. As to conditions: CEM cells (CCRF-CEM). The format is cell-based, CCRF-CEM.
Data set [9] can be described thus: as §4. The settings on record: chlorocebus sabaeus, Vero cells. The format is cell-based.

Some results are limits rather than exact numbers.

The term EC50 denotes the concentration needed to bring the measured effect to its halfway point. The term CC50 denotes the concentration that lowers cell viability or growth by half. On to `COC(=O)C1=C(C)NC(c2ccccn2)=NC1Cc1ccccc1` (stereo unspecified), for which the EC50 in data set [1] was over 10 µM. In addition, the cytotoxic concentration (CC50) in data set [2] is over 100 µM; in [3], 52 µM; in data set [4], 61 µM; in data set [5], over 100 µM.

Consider `COC(=O)C1=C(CN2CCOCC2)NC(c2ccccn2)=NC1c1ccc(F)cc1Cl` (racemic), for which the EC50 in data set [1] is 0.45 to 0.5 µM. The CC50 in [2], in data set [3], in data set [4] and in data set [5] was over 100 µM each time.

Consider `CCS(=O)(=O)CC1=C(C(=O)OC)C(c2ccc(F)cc2Cl)N=C(c2ccccn2)N1` (stereo unspecified), for which, in [1], the EC50 is over 10 µM. The CC50 in [2] is over 100 µM; in data set [3] it was over 100 µM; in data set [4] it was 39 µM; in data set [5], over 100 µM.

As to `CC1=C(C(=O)NS(=O)(=O)N(C)C)C(c2ccc(F)cc2Cl)N=C(c2ccccn2)N1` (stereo unspecified), the EC50 in data set [1] is over 10 µM. Moreover, the CC50 was over 100 µM in [2], over 100 µM in data set [3], over 100 µM in data set [4] and at least 100 µM in data set [5].

As for `COC(=O)c1c(Cc2ccccc2)nc(-c2ccccn2)nc1CN1CCOCC1`, the EC50 in [1] was over 10 µM. In addition, the 50% cytotoxic concentration (CC50) in data set [2] is over 100 µM; in data set [3], 81 µM; in [4] it was 2 µM; in [5], 59 µM.

For `CC1=C(I)C(c2ccc(F)cc2Cl)N=C(c2ccccn2)N1` (stereo unspecified), in [1], the EC50 came to 4.1 µM. Also, the cytotoxic concentration (CC50) in data set [2] is over 100 µM; in data set [3], 80 µM; in [4], 74 µM; in [5], 29 µM.

Regarding `COC(=O)C1=C(CS(=O)(=O)Cc2ccc(C)cc2)NC(c2ccccn2)=NC1c1ccc(F)cc1Cl` (stereo unspecified), in data set [1], the EC50 is over 10 µM. Besides, the CC50 in [2] was over 100 µM; in data set [3], 67 µM; in data set [4], 47 µM; in [5], at least 100 µM.

As to `COC(=O)c1c(Cc2ccccc2)nc(-c2ccccn2)nc1CN1CCN(C)CC1`, the 50% effective concentration (EC50) in data set [1] was over 10 µM. Moreover, the CC50 in [2] is over 100 µM; in [3], over 100 µM; in [4], 86 µM; in data set [5] it was over 100 µM.

As to `CCOP(=O)(CC1=C(C(=O)OC)C(c2ccc(F)cc2Cl)N=C(c2ccccn2)N1)OCC` (stereo unspecified), the EC50 in data set [1] was over 10 µM. Besides, the half-maximal cytotoxic concentration (CC50) in [2] was over 100 µM; in data set [3], 65 µM; in [4] it was 15 µM; in data set [5], 43 µM.

As for `Fc1ccc(C2N=C(c3ccccn3)NC(CN3CCOCC3)=C2I)c(Cl)c1` (stereo unspecified), the EC50 in data set [1] stood at 4 µM. Besides, the CC50 is over 100 µM in data set [2], over 100 µM in data set [3], 11 µM in [4] and 45 µM in [5].

Turning to `CCCC[n+]1ccn(CC2=C(C(=O)OC)C(c3ccc(F)cc3Cl)N=C(c3ccccn3)N2)c1` (stereo unspecified), the EC50 in [1] is over 10 µM. The CC50 in data set [2] was 14 µM; in data set [3], 20 µM; in [4] it was 3 µM; in data set [5], over 100 µM.

Consider `COC(=O)c1c(CSc2ccccc2)nc(-c2ccccn2)nc1Cc1ccccc1`, for which the EC50 in [1] is over 10 µM. Moreover, the CC50 in [2] is over 100 µM; in [3], 65 µM; in [4] it was 9 µM; in data set [5], 12 µM.

In the case of `CC1(C)CC(=O)C2=C(C1)NC(c1cccnc1)=NC2c1ccc(F)cc1Cl` (racemic), in [1], the EC50 was over 10 µM. Further, the CC50 in [2], in data set [3], in data set [4] and in data set [5] was over 100 µM in each case.

Turning to `CC1(C)CC(=O)c2c(Cc3ccc(F)cc3Cl)nc(-c3ccncc3)nc2C1`, the EC50 in data set [1] was over 10 µM. Moreover, the CC50 was at least 100 µM in [2], over 100 µM in data set [3], at least 100 µM in data set [4] and 10 µM in data set [5].

Take `Fc1ccc(C2N=C(c3nccs3)NC(CN3CCOCC3)=C2I)c(Br)c1` (stereo unspecified): the EC50 in data set [1] turned out to be 5.7 µM. Besides, the CC50 in [2] is over 100 µM; in data set [3] it was 75 µM; in [4] it was 33 µM; in data set [5], over 100 µM.

For `CC1(C)CC(=O)c2c(Cc3ccc(F)cc3Cl)nc(-c3cccnc3)nc2C1`, the EC50 in data set [1] was over 10 µM. Besides, the cytotoxic concentration (CC50) in data set [2] is over 100 µM; in data set [3] it was over 100 µM; in [4], 86 µM; in data set [5] it was at least 100 µM.

For `CC1(C)CC(=O)c2c(Cc3ccccc3)nc(-c3ccccn3)nc2C1`, the EC50 in data set [1] was over 10 µM. The CC50 is 47 µM in data set [2], 43 µM in [3], 21 µM in data set [4] and 53 µM in data set [5].

With `COCCOCc1nc(-c2ccccn2)nc(Cc2ccccc2)c1C(=O)OC`, the EC50 in data set [1] was over 10 µM. Besides, the CC50 in data set [2] was at least 100 µM; in data set [3] it was 99 µM; in data set [4], 55 µM; in [5] it was 87 µM.

With `COC(=O)c1c(Cc2ccc(F)cc2Cl)nc(-c2ccccn2)nc1CN1CCOCC1`, the EC50 in data set [1] was over 10 µM. The CC50 in [2] came out at 69 µM; in data set [3], 34 µM; in data set [4], 11 µM; in [5], 71 µM.

Take `COC(=O)c1c(C)nc(-c2ccccn2)nc1Cc1ccccc1`: the EC50 in data set [1] is over 10 µM. Moreover, the CC50 in data set [2] is 41 µM; in data set [3], 67 µM; in [4], 4 µM; in data set [5] it was 61 µM.

For `CC1=C(C(=O)OCC(F)(F)F)C(c2ccc(F)cc2Cl)N=C(c2ccccn2)N1` (stereo unspecified), the EC50 in data set [1] is over 10 µM. Further, the CC50 was over 100 µM in data set [2], over 100 µM in data set [3], 4 µM in data set [4] and 65 µM in data set [5].

With `CCOC(=O)C1=C(CN2CCOCC2)NC(c2nccs2)=NC1c1ccc(F)cc1Br` (racemic), in [1], the EC50 was 0.3 µM.

As for `COC(=O)C1=C(CSc2ccccc2)NC(c2ccccn2)=NC1Cc1ccccc1` (stereo unspecified), the EC50 in [1] was over 10 µM. Besides, the CC50 in data set [2] was 96 µM; in data set [3] it was over 100 µM; in [4] it was 5 µM; in data set [5] it was over 100 µM.

On to `CC1(C)CC(=O)c2c(Cc3ccc(F)cc3Cl)nc(-c3ccccn3)nc2C1`, for which, in data set [1], the EC50 is over 10 µM. The CC50 in [2] stood at 42 µM; in data set [3], 69 µM; in data set [4], 9 µM; in data set [5], 29 µM.

As to `COC(=O)C1=C(Cn2cc[n+](C)c2)NC(c2ccccn2)=NC1c1ccc(F)cc1Cl` (stereo unspecified), in [1], the EC50 was over 10 µM. The 50% cytotoxic concentration (CC50) in [2] was over 100 µM; in data set [3] it was 44 µM; in data set [4] it was 23 µM; in data set [5] it was over 100 µM.

In the case of `CC(=O)NC1=C(CN2CCOCC2)NC(c2ccccn2)=NC1c1ccc(F)cc1Cl` (stereo unspecified), the EC50 in data set [1] is over 10 µM. Besides, the CC50 was over 100 µM in [2], 28 µM in [3], 69 µM in data set [4] and 18 µM in [5].

For the molecule `CC1=C(I)C(c2ccc(F)cc2Br)N=C(c2nccs2)N1` (stereo unspecified), the EC50 in [1] turned out to be 7.1 µM. In addition, the CC50 in data set [2] was over 100 µM; in data set [3] it was 80 µM; in data set [4], 33 µM; in [5], over 100 µM.

Turning to `CC1=C(Cl)C(c2ccc(F)cc2Cl)N=C(c2ccccn2)N1` (stereo unspecified), the EC50 in [1] is over 10 µM. Moreover, the CC50 is 98 µM in [2], over 100 µM in [3], 44 µM in [4] and 13 µM in [5].

Regarding `CC1=C(C(=O)SC(C)C)C(c2ccc(F)cc2Cl)N=C(c2ccccn2)N1` (stereo unspecified), in [1], the EC50 was over 10 µM. Moreover, the 50% cytotoxic concentration (CC50) in data set [2] is over 100 µM; in [3], 31 µM; in [4], 13 µM; in data set [5], 40 µM.

For the molecule `Nc1ccn([C@@H]2CS[C@H](CO)O2)c(=O)n1` [LAMIVUDINE], the EC50 in [1] was found to be 0.04 µM. The CC50 was 10 to 100 µM in data set [6], over 100 µM in [7], over 100 µM in data set [8] and over 100 µM in data set [9].

As for `CC1=C(Br)C(c2ccc(F)cc2Cl)N=C(c2ccccn2)N1` (stereo unspecified), the 50% effective concentration (EC50) in data set [1] turned out to be 5.2 µM. The CC50 was 79 µM in data set [2], over 100 µM in [3], 23 µM in data set [4] and 16 µM in data set [5].

With `COC(=O)C1=C(CN=[N+]=[N-])NC(c2ccccn2)=NC1c1ccc(F)cc1Cl` (stereo unspecified), the EC50 in data set [1] worked out at 5.3 µM. The CC50 in data set [2] is over 100 µM; in [3] it was over 100 µM; in data set [4] it was over 100 µM; in data set [5], 56 µM.

As to `CC(=O)NC1=C(C)NC(c2ccccn2)=NC1c1ccc(F)cc1Cl` (stereo unspecified), the EC50 in [1] was over 10 µM. The CC50 was 80 µM in [2], over 100 µM in data set [3], over 100 µM in data set [4] and over 100 µM in [5].

On to `COC(=O)C1=C(CN2CCN(C)CC2)NC(c2ccccn2)=NC1Cc1ccccc1` (stereo unspecified), for which the EC50 in [1] was over 10 µM. Also, the CC50 in [2] was 14 µM; in data set [3], over 100 µM; in [4], 17 µM; in [5], 76 µM.
